US20250325655A1, “VACCINE ADJUVANT, AND PREPARATION METHOD THEREFOR AND USE THEREOF” (CHENGDU MAXVAX BIOTECHNOLOGY LLC, priority 2021, published 2025)

Tests used:
[1] = cancer patients, QS-21 dose 100~200 μg, cited from earlier work
[2] = Toxicology studies of the present product; settings: poly (I:C) adsorbed onto the mixed liposomes
From the text: In order to maintain stability of physical properties of products, the mixed liposomes containing the cationic liposomes and the neutral liposomes (consisting of […]) were chosen in the present disclosure to adsorb poly (I:C). Poly (I:C) adsorbed by the intramuscular administered mixed liposomes could be passively or actively delivered to antigen presenting cells (APCs), to limit its interaction with non-phagocytic cells, and regulate systemic secretion of cytokines generated thereby.

Compound | erythema and induration at the injection site ([1]; most patients) | dose-limiting toxicity [1] | safety [2]
CCC(C)C(CC(O)CC(=O)O[C@@H]1[C@H](O)[C@H](C)O[C@H](OC(=O)[C@@H]2CC(C)(C)C[C@@H]3C4=CCC5[C@@]6(C)CC[C@H](O[C@@H]7O[C@H](C(=O)O)[C@@H](O)[C@H](O[C@H]8OC[C@@H](O)[C@H](O)[C@H]8O)[C@H]7O[C@@H]7O[C@H](CO)[C@H](O)[C@H](O)[C@H]7O)[C@@](C)(C=O)[C@@H]6CC[C@@]5(C)[C@]4(C)C[C@@H](O)C32)[C@H]1O[C@@H]1O[C@@H](C)[C@H](O[C@H]2OC[C@@H](O)[C@H](O[C@H]3OC[C@](O)(CO)[C@H]3O)[C@H]2O)[C@@H](O)[C@H]1O)OC(=O)CC(O)CC(O[C@@H]1O[C@@H](CO)[C@H](O)[C@H]1O)C(C)CC (stereo partly drawn) [QS-21, Quillaja saponaria saponin 21] | 2-10 cm | No dose-limiting toxicity | –
polyinosinic: polycytidylic acid [poly (I:C)] | – | – | can effectively improve its safety
